Laboratory results taken from patent US6632808B1 (priority 1998, dated 2003).

Tested on: hamster 263K scrapie
Set-up: species or system transgenic mice over-expressing the hamster PrP-sen (Tg7)
Conditions: in vivo

Phthalocyanine tetrasulfonate [PcTS]
animals surviving a minimum of 200 days: 60%
increase of survival times, late treatment: one week
survival longer than untreated controls: approximately 120 days
survivors at >170 Dpi: 80%
